Experimental findings from US20200216417A1, “INHIBITORS OF FIBROBLAST ACTIVATION PROTEIN” (Praxis Biotech LLC, priority 2019, published 2020) are described below.

Common to all, as to assay type: biochemical
In assay [1] the target is T1, recombinant human DPP9 (rhDPP9) (Homo sapiens, UniProt Q86TI2).
T1 construct: purchased R&S system / R&D systems (both sic) 5419-SE
Description: DPP9 inhibition assay, 10 ng rhDPP9, Tris-HCl/BSA buffer. The conditions noted are these: Table 3B.

In assay [2] the target is T2, recombinant human DPPIV (rhDPPIV) (Homo sapiens, UniProt P27487).
T2 construct: purchased R&S system (so in the source)
T2 sequence (P27487 whole entry): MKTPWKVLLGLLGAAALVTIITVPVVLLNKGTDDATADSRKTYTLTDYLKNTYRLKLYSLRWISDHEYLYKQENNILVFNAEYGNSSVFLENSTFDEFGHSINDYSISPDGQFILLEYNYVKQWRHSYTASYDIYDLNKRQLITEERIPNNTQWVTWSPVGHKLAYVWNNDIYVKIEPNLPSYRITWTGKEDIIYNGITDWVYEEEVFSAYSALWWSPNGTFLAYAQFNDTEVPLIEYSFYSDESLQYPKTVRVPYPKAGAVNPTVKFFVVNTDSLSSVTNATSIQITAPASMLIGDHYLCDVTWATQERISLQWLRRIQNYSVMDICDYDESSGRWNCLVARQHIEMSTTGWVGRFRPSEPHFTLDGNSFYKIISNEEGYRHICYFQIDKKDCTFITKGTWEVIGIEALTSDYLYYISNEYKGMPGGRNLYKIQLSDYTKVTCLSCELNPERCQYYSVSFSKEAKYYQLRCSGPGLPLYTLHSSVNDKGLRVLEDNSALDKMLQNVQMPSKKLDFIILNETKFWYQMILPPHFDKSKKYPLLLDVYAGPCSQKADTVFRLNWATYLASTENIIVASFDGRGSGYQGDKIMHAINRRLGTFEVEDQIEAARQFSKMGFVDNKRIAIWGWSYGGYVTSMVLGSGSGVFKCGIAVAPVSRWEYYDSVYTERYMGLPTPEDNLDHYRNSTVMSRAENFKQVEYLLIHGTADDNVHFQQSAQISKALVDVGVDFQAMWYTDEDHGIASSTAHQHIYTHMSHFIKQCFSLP
The assay is described as follows: DPPIV enzymatic activity assay, H-Gly-Pro-pNA. The conditions noted are these: Table 3B.

Assay [3] has as its target T3, recombinant human FAPα (rhFAPα) (Homo sapiens, UniProt Q12884).
T3 construct: purchased R&S system (so in the source)
T3 sequence (Q12884 1-760): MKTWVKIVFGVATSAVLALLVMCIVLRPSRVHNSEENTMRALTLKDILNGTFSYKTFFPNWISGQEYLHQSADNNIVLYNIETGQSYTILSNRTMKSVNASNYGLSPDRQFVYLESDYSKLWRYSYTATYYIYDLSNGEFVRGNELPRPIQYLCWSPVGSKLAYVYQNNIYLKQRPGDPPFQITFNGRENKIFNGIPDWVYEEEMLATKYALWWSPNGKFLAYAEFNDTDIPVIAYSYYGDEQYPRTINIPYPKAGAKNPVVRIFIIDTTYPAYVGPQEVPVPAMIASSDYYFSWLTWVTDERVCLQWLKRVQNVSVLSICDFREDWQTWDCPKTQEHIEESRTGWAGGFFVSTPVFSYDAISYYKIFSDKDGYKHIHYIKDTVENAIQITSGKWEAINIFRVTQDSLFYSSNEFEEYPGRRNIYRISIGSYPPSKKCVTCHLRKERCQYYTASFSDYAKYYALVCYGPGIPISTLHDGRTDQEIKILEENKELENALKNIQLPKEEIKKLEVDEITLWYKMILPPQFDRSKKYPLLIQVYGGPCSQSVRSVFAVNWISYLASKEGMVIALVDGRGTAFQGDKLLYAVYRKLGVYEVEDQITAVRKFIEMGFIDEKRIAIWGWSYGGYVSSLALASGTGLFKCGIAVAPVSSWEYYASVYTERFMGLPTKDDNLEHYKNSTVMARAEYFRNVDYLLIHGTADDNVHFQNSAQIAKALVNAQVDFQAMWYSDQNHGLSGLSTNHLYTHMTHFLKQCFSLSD
Description: FAPα enzymatic exopeptidase (dipeptidase) activity assay, Z-Gly-Pro-AMC. The conditions noted are these: Table 3B; for IC50: read-out: rhFAP IC50; for inhibition at 1 µM: exopeptidase inhibition at 1 μM test compound, read-out: rhFAPα % exo inh @ 1 μM.

Assay [4] deals with T4, recombinant human PREP (rhPREP) (Homo sapiens, UniProt P48147).
T4 sequence (P48147 1-710): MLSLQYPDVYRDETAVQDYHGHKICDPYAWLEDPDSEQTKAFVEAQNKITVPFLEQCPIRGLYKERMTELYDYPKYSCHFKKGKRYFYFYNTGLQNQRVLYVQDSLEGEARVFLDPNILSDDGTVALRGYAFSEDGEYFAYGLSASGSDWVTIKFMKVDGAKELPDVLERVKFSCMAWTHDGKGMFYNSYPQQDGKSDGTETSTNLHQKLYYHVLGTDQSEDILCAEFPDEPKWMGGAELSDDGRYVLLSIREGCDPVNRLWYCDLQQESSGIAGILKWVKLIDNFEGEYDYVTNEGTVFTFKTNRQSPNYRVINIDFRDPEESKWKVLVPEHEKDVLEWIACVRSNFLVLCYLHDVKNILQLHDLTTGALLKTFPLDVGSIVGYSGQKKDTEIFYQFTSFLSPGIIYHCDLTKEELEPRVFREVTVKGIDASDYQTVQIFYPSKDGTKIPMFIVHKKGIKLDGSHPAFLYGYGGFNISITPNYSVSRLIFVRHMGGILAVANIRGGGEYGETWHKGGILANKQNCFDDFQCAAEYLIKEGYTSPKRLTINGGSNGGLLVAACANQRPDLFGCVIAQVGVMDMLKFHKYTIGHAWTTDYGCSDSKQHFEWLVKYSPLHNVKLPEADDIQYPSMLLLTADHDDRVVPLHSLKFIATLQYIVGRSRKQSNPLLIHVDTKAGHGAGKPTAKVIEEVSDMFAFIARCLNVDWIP
The assay is described as follows: PREP enzymatic activity assay, Z-Gly-Pro-AMC. The conditions noted are these: Table 3B.

Molecules are shown by their SMILES.

T1 sequence (Q86TI2 whole entry): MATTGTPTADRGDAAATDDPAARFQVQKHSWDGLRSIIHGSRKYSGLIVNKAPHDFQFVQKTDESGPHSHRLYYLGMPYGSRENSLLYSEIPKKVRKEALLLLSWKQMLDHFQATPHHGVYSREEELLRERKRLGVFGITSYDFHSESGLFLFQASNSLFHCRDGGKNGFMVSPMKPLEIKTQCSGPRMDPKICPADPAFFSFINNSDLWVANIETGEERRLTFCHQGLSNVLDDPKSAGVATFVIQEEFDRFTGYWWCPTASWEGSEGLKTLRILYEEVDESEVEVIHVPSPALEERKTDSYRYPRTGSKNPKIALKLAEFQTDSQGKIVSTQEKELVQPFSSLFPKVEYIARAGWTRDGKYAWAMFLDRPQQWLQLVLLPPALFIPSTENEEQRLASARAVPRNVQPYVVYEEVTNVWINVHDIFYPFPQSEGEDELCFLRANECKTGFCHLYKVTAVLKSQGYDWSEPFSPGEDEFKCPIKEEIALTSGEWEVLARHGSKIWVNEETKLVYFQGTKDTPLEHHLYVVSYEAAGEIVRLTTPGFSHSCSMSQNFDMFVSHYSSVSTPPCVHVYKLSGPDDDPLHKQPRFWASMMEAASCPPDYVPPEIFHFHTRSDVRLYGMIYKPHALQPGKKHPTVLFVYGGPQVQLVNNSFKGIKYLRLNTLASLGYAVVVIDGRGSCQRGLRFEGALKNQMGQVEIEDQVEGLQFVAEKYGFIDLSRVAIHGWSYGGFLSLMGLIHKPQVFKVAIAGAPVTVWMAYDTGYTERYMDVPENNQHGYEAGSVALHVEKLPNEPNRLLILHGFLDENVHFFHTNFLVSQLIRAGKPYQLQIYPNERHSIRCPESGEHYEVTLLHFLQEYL

With `C/C(=C\c1cnccc1C(=O)NCC(=O)N1CC(F)(F)C[C@H]1C#N)c1ccc(OC(F)(F)F)cc1` [Compound 19], the IC50 is 1000 to 10000 nM in assay [1], greater than 10000 nM in assay [2], less than 1000 nM in assay [3] and greater than 10000 nM in assay [4]. In assay [3], the inhibition at 1 µM is greater than 50%.

`C/C(=C\c1cnccc1C(=O)NCC(=O)N1CC(F)(F)C[C@H]1C#N)c1ccc(C(F)(F)F)cc1` [Compound 20]: the IC50 in assay [1] was 1000 to 10000 nM; in assay [2], greater than 10000 nM; in assay [3], less than 1000 nM; in assay [4], greater than 10000 nM. Further, the inhibition at 1 µM in assay [3] is greater than 50%.

For the molecule `N#C[C@@H]1CC(F)(F)CN1C(=O)CNC(=O)c1ccncc1/C=C/c1ccc(C(F)(F)F)cc1` [Compound 24], the IC50 in assay [1] is 1000 to 10000 nM; in assay [2] it was 1000 to 10000 nM; in assay [3] it was less than 1000 nM; in assay [4], greater than 10000 nM. Further, the inhibition at 1 µM in assay [3] was greater than 50%.

For the molecule `C/C(=C\c1cnccc1C(=O)NCC(=O)N1CC(F)(F)C[C@H]1C#N)c1ccc(Cl)cc1` [Compound 26], the IC50 was less than 1000 nM in assay [1], greater than 10000 nM in assay [2], less than 1000 nM in assay [3] and greater than 10000 nM in assay [4]. Further, the inhibition at 1 µM in assay [3] was greater than 50%.

`COc1ccc(/C(C)=C/c2cnccc2C(=O)NCC(=O)N2CC(F)(F)C[C@H]2C#N)cc1` [Compound 29]: the IC50 in assay [1] was 1000 to 10000 nM; in assay [2], greater than 10000 nM; in assay [3], less than 1000 nM; in assay [4] it was greater than 10000 nM. In addition, in assay [3], the inhibition at 1 µM is greater than 50%.

As for `N#C[C@@H]1CC(F)(F)CN1C(=O)CNC(=O)c1ccncc1/C=C/c1ccc(OC(F)(F)F)cc1` [Compound 33], the IC50 is less than 1000 nM in assay [1], greater than 10000 nM in assay [2], less than 1000 nM in assay [3] and greater than 10000 nM in assay [4]. The inhibition at 1 µM in assay [3] is greater than 50%.

As for `N#C[C@@H]1CC(F)(F)CN1C(=O)CNC(=O)c1ccnc2ccc(-c3ccc(C(F)(F)F)cc3)cc12` [Compound 35], the IC50 in assay [1] was less than 1000 nM; in assay [2], greater than 10000 nM; in assay [3], less than 1000 nM; in assay [4] it was greater than 10000 nM. Also, the inhibition at 1 µM in assay [3] was greater than 50%.

In the case of `Cc1ccc(/C=C/c2ccc3nccc(C(=O)NCC(=O)N4CC(F)(F)C[C@H]4C#N)c3c2)nc1` [Compound 49], in assay [1], the 50% inhibitory concentration (IC50) was less than 1000 nM. Moreover, in assay [3], the IC50 is less than 1000 nM and the inhibition at 1 µM was greater than 50%.

On to `CC(C)(C)c1ccc(/C=C/c2ccc3nccc(C(=O)NCC(=O)N4CC(F)(F)C[C@H]4C#N)c3c2)cc1` [Compound 50], for which the IC50 in assay [1] was 1000 to 10000 nM; in assay [3], less than 1000 nM. Besides, in assay [3], the inhibition at 1 µM is greater than 50%.

For the molecule `N#C[C@@H]1CC(F)(F)CN1C(=O)CNC(=O)c1ccnc2ccc(/C=C/c3ccc(C(F)(F)F)cc3)cc12` [Compound 51], the IC50 in assay [1] and in assay [3] was less than 1000 nM throughout. In addition, the inhibition at 1 µM in assay [3] was greater than 50%.

On to `CN1CCN(c2ccc(-c3ccc4nccc(C(=O)NCC(=O)N5CC(F)(F)C[C@H]5C#N)c4c3)cn2)CC1` [Compound 52], for which the IC50 in assay [1] was 1000 to 10000 nM. Besides, in assay [3], the IC50 is less than 1000 nM and the inhibition at 1 µM was greater than 50%.

As for `C[C@H](Nc1cnccc1C(=O)NCC(=O)N1CC(F)(F)C[C@H]1C#N)c1ccc(F)cc1` [Compound 190], the IC50 in assay [2] is greater than 10000 nM; in assay [3], less than 1000 nM. Also, in assay [3], the inhibition at 1 µM is greater than 50%.

With `C[C@@H](Nc1cnccc1C(=O)NCC(=O)N1CC(F)(F)C[C@H]1C#N)c1ccc(F)cc1` [Compound 191], the IC50 was greater than 10000 nM in assay [2], less than 1000 nM in assay [3] and 1000 to 10000 nM in assay [4]. In assay [3], the inhibition at 1 µM is greater than 50%.

On to `CC(C)(O)c1ccc(-c2ccc3nccc(C(=O)NCC(=O)N4CC(F)(F)C[C@H]4C#N)c3c2)cc1` [Compound 195], for which the IC50 is greater than 10000 nM in assay [2], less than 1000 nM in assay [3] and greater than 10000 nM in assay [4]. Moreover, the inhibition at 1 µM in assay [3] is greater than 50%.

The term IC50 denotes the concentration needed to halve the response being measured.
